# According to PMC9127571 (eBioMedicine, 2022):
# “Also recorded” adds a separate entry of the source.
# Experiments:
# [1] = Cobicistat plasma pharmacokinetics; type: in vivo, human; settings: 150 mg, all individuals
# P. falciparum = settings: cited from earlier work
# [2] = Beagle dog oral toxicology, safety pharmacology and toxicokinetics; type: in vivo; settings: high doses
# [3] = Phase 1a plasma pharmacokinetics of SJ733 and metabolite SJ506; type: in vivo, human
# [4] = Phase 1a safety and tolerability: adverse events, ECG, laboratory tests; type: in vivo, human
# [5] = MAD and cobicistat-boosted SAD cohorts
Structure (SMILES),time by which levels were below LLOQ (10 ng/mL) [1] [h],estimated minimum inhibitory concentration (MIC) (P. falciparum) [µg/mL],minimum inhibitory concentration (MIC) (P. falciparum) [µg/mL],methemoglobinemia [2],individuals with time above MIC >96 h ([3]; 300 mg daily for 3 days) [%],individuals with time above MIC >96 h ([3]; 600 mg daily for 3 days) [%],decrease in median post-hoc apparent clearance ([3]; SAD cohorts without vs with cobicistat) [%],"AUC(0-inf) ([3]; human, plasma, oral) [µg·h/mL]","Cmax ([3]; human, plasma, oral, maximal Cmax, unboosted SAD and MAD cohorts) [ng/mL]","relatedness of all AEs to SJ733 or cobicistat [4, 5]","serious adverse events [4, 5]","post-dose QTc above 500 ms ([4]; human, in vivo, oral)","baseline versus post-dose QTc interval change above 60 ms ([4]; instance: Day 3, 1·5 h post 300 mg, unboosted)"
CC(C)c1nc(CN(C)C(=O)N[C@@H](CCN2CCOCC2)C(=O)N[C@H](CC[C@H](Cc2ccccc2)NC(=O)OCc2cncs2)Cc2ccccc2)cs1 [cobicistat],≤ 48,–,–,–,–,–,–,–,–,–,–,–,–
N#Cc1cc(NC(=O)[C@H]2c3ccccc3C(=O)N(CC(F)(F)F)[C@@H]2c2cccnc2)ccc1F [SJ733],–,0.15,0.15,"Dose-dependent, reversible methemoglobinemia",0,50,72,104,2180,unlikely related or unrelated,no serious adverse events; also recorded: no serious AEs,no post-dose QTc interval change above 500 ms,one instance
